{"source": "paper PMC8113459", "about": "“Selective inhibition of cullin 3 neddylation through covalent targeting DCN1 protects mice from acetaminophen-induced liver toxicity” (Nature Communications, 2021)", "key": {"[1]": {"test": "Pharmacokinetics: concentrations in mouse plasma and liver", "format": "in vivo", "settings": "for concentration at 1 h / concentration at 3 h / concentration at 6 h / concentration at 24 h: male, C57BL/6, mouse, ip", "description": "Supplementary Table 2A. Concentrations of DI-1548 in mouse Plasma and liver after the C57BL/6 male mice were treated with a single dose of DI-1548 at 25 mg/kg via intraperitoneal (IP) injection. BLQ: below the limit of quantification.\nTime point (h) Plasma (ng /mL) Liver (ng /g)\nSupplementary Table 2B. Concentrations of DI-1859 in mouse Plasma and liver after the C57BL/6 male mice were treated with a single dose of DI-1859 at 25 mg/kg via intraperitoneal (IP) injection. BLQ:\nTime point (h) Pl asma (ng /mL) Liver (ng /g) […]"}, "DCN1": {"target": "DCN1 (Homo sapiens, UniProt Q96GG9)", "sequence (Q96GG9 62-251)": "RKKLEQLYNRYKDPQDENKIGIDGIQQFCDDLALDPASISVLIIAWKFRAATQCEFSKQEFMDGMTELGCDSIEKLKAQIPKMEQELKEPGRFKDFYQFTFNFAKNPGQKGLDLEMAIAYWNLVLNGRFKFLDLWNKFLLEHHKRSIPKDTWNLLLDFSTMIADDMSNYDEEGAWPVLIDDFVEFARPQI", "test": "Cocrystal structures of lyso-DCN1-inhibitor complexes", "parameters": "to DCN1 residues 62–251; His6 (N); TEV cleavage site (N); lysozyme residues 1–164 with C54T, C97A, A146T, D127A, R154A (fusion partner, N-terminal of DCN1); made in house; host or cells: Rosetta 2 cells (E. coli)", "description": "Lysozyme–DCN1 gene was synthesized fusing lysozyme residues 1–164, containing mutations (C54T, C97A, A146T, D127A, and R154A), to DCN1 residues 62–251. Ligation independent cloning was utilized to clone the fused gene into an N-terminal His6–TEV expression vector. The clone was transformed into Rosetta 2 cells, grown in terrific broth at 37 °C, and expressed overnight with 0.4 mM isopropyl β-D-1-thiogalactopyranoside at 20 °C. Pelleted cells were freeze-thawed and lysed in 25 mM HEPES, pH 7.5, 150 mM NaCl, 0.1% β-mercaptoethanol and protease inhibitors. Cellular debris was removed via centrifugation. The supernatant was loaded onto a Ni-NTA (Qiagen) column at 4 °C. The column was washed with 25 mM HEPES, pH 7.5, 150 mM NaCl, and 20 mM imidazole, then protein eluted with buffer containing 300 mM imidazole. The eluate was applied to a Superdex 200 (GE Healthcare) equilibrated with 25 mM HEPES, pH 7.5, 200 mM NaCl, and 1 mM DTT. The protein was judged to be greater than 95% pure by SDS-PAGE, concentrated to 3.5 mg/mL and stored at −80 °C. Yield was 450 mg/L of expressed media.\nLyso–DCN1 protein was thawed and concentrated to 9.9 mg/mL in 25 mM HEPES, pH 7.5, 200 mM NaCl, and 1 mM DTT. Each compound was incubated with protein in a 1:1.2 protein to compound molar ratio overnight at 4 °C, then spun and setup in sitting drop vapor diffusion experiments. Crystallization drops contained 2 µL of protein–inhibitor solution and 1 µL of well solution. Crystals grew at 20 °C with well solution containing 28–33% PEG 3350 and 200 mM ammonium formate. Crystals were cryoprotected in 25 mM HEPES, pH 7.5, 200 mM NaCl, 30% PEG 3350, and 1 mM DTT.\nDiffraction data were collected at a wavelength of 0.9786 Å on the APS LS-CAT 21-ID-G beamline at Argonne National Laboratory. Data were processed using HKL2000[44] and solved via molecular replacement using molrep[45] with two independent search models (lysozyme and DCN1) from PDB ID 5V83. The structures were iteratively fit and refined using Coot[46] and Buster[47]. […]"}, "DCN3 protein": {"target": "DCN3 protein (Homo sapiens, UniProt Q8IWE4)", "sequence (Q8IWE4 86-304 limits assumed)": "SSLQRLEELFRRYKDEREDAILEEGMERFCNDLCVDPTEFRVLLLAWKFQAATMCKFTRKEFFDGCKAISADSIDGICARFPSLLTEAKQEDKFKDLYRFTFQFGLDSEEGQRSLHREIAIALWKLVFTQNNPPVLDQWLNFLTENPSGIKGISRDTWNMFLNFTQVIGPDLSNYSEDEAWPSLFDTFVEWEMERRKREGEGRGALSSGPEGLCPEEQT", "test": "Intact-protein mass spectrometric analysis, Method B (DCN3)", "format": "binding", "settings": "3 h incubation", "description": "Method B: Recombinant DCN1 or DCN3 protein (100 nM in 25 mM Tris 7.5, 200 mM NaCl, 1 mM DTT buffer) was incubated with 1.2-fold excess of the DCN1 inhibitors at 37 °C for 10 min, 1 h, or 3 h. Following incubation, the protein was analyzed by LC–MS (Agilent Q-TOF 6545) under the following conditions: fragmentor voltage, 300 V; skimmer voltage, 75 V; nozzle voltage, 100 V; sheath gas temperature, 350 °C; and drying gas temperature, 325 °C. MassHunter Qualitative Analysis software (Agilent) was used to analyze the data. Intact protein masses were obtained using the maximum entropy deconvolution algorithm. The mass spectrometry data in Supplementary Figs. 14–17 were generated by Method B."}, "neddylation of cullin 3": {"tested_on": "neddylation of cullin 3", "test": "Western blot, cullin 3 neddylation in cells of different tissue types (U2OS, THLE2, MDA-MB-231, KYSE70, HCT116)", "format": "cell-based, human"}, "[2]": {"settings": "C57BL/6 male mice, 25 mg/kg IP, 6 h"}, "[3]": {"settings": "C57BL/6 male mice, 25 mg/kg IP, 24 h"}}, "note": "Values joined by “and” are separate entries in the source; they are usually repeats but may differ in a detail not shown here. Equal entries are not always repeated. Where two headings read alike, the source gives them in different places."}
{"smiles": "C=C(CN(C)C)C(=O)NC[C@@H](NC(=O)[C@H](Cc1nc2ccc(C(C)C)cc2s1)NC(=O)CC)C1CCCCC1", "note": "[DI-1859]", "values": [{"measurement": "time by which the compounds were cleared from systemic circulation", "setting": "[1]; 25 mg/kg IP", "value": "< 3", "unit": "h"}, {"measurement": "Liver concentration", "setting": "[1]; [2]", "value": "BLQ"}, {"measurement": "Plasma concentration", "setting": "[1]; [2]", "value": "BLQ"}, {"measurement": "Liver concentration", "setting": "[1]; [3]", "value": "BLQ"}, {"measurement": "Plasma concentration", "setting": "[1]; [3]", "value": "BLQ"}, {"measurement": "concentration at 1 h", "setting": "[1]; liver, 25 mg/kg, C57BL/6 male mice, 25 mg/kg IP, 1 h, read-out: Liver concentration", "value": "3280 ± 531", "unit": "ng/g"}, {"measurement": "concentration at 3 h", "setting": "[1]; liver, 25 mg/kg, C57BL/6 male mice, 25 mg/kg IP, 3 h, read-out: Liver concentration", "value": "30 ± 29", "unit": "ng/g"}, {"measurement": "concentration at 1 h", "setting": "[1]; liver, 25 mg/kg, mouse liver, IP 25mg/kg, 1h, mean of 3 mice, read-out: Concentration in mouse liver, MEAN", "value": 3280, "unit": "ng/g"}, {"measurement": "concentration at 1 h", "setting": "[1]; liver, 25 mg/kg, mouse liver, IP 25mg/kg, 1h, single animals, read-out: Concentration in mouse liver, individual mice 1, 2, 3", "value": 3880, "unit": "ng/g"}, {"measurement": "concentration at 3 h", "setting": "[1]; liver, 25 mg/kg, mouse liver, IP 25mg/kg, 3h, mean of 3 mice, read-out: Concentration in mouse liver, MEAN", "value": 30.3, "unit": "ng/g"}, {"measurement": "concentration at 6 h", "setting": "[1]; liver, 25 mg/kg, mouse liver, IP 25mg/kg, 6h, mean of 3 mice, read-out: Concentration in mouse liver, MEAN", "value": 2.27, "unit": "ng/g"}, {"measurement": "concentration at 24 h", "setting": "[1]; liver, 25 mg/kg, mouse liver, IP 25mg/kg, 24h, mean, read-out: Concentration in mouse liver, MEAN", "value": 1.46, "unit": "ng/g"}, {"measurement": "concentration at 24 h", "setting": "[1]; liver, 25 mg/kg, mouse liver, IP 25mg/kg, 24h, single animals, read-out: Concentration in mouse liver, individual mice 1, 2, 3", "value": 1.56, "unit": "ng/g"}, {"measurement": "concentration at 1 h", "setting": "[1]; plasma, 25 mg/kg, C57BL/6 male mice, 25 mg/kg IP, 1 h, read-out: Plasma concentration", "value": "1740 ± 292", "unit": "ng/mL"}, {"measurement": "concentration at 3 h", "setting": "[1]; plasma, 25 mg/kg, C57BL/6 male mice, 25 mg/kg IP, 3 h, read-out: Plasma concentration", "value": "28 ± 12", "unit": "ng/mL"}, {"measurement": "concentration at 1 h", "setting": "[1]; plasma, 25 mg/kg, mouse plasma, IP 25mg/kg, 1h, mean of 3 mice, read-out: Concentration in mouse plasma, MEAN", "value": 1740, "unit": "ng/mL"}, {"measurement": "concentration at 1 h", "setting": "[1]; plasma, 25 mg/kg, mouse plasma, IP 25mg/kg, 1h, single animals, read-out: Concentration in mouse plasma, individual mice 1, 2, 3", "value": 2070, "unit": "ng/mL"}, {"measurement": "concentration at 3 h", "setting": "[1]; plasma, 25 mg/kg, mouse plasma, IP 25mg/kg, 3h, mean of 3 mice, read-out: Concentration in mouse plasma, MEAN", "value": 27.9, "unit": "ng/mL"}, {"measurement": "concentration at 6 h", "setting": "[1]; plasma, 25 mg/kg, mouse plasma, IP 25mg/kg, 6h, mean (only one mouse above the limit of quantification), read-out: Concentration in mouse plasma, MEAN", "value": 1.04, "unit": "ng/mL"}, {"measurement": "concentration at 6 h", "setting": "[1]; plasma, 25 mg/kg, mouse plasma, IP 25mg/kg, 6h, single animals, limit of quantification 1 ng/mL, read-out: Concentration in mouse plasma, individual mice 1, 2, 3", "value": "< 1", "unit": "ng/mL"}, {"measurement": "concentration at 24 h", "setting": "[1]; plasma, 25 mg/kg, mouse plasma, IP 25mg/kg, 24h, single animals, limit of quantification 1 ng/mL, read-out: Concentration in mouse plasma, individual mice 1, 2, 3", "value": "< 1", "unit": "ng/mL"}, {"measurement": "Concentration in mouse liver, individual mice 1, 2, 3", "setting": "[1]; mouse liver, IP 25mg/kg, 1h, single animals, 25 mg/kg", "value": "3079.98 ng/g and 2879.94 ng/g"}, {"measurement": "Concentration in mouse liver, individual mice 1, 2, 3", "setting": "[1]; mouse liver, IP 25mg/kg, 3h, single animals, 25 mg/kg", "value": "13.04 ng/g and 64.07 ng/g and 13.91 ng/g"}, {"measurement": "Concentration in mouse liver, individual mice 1, 2, 3", "setting": "[1]; mouse liver, IP 25mg/kg, 6h, single animals, 25 mg/kg", "value": 1.59, "unit": "ng/g"}, {"measurement": "Concentration in mouse liver, individual mice 1, 2, 3", "setting": "[1]; mouse liver, IP 25mg/kg, 24h, single animals, 25 mg/kg", "value": "1.41 ng/g and 1.40 ng/g"}, {"measurement": "Concentration in mouse plasma, individual mice 1, 2, 3", "setting": "[1]; mouse plasma, IP 25mg/kg, 1h, single animals, 25 mg/kg", "value": "1549.72 ng/mL and 1588.65 ng/mL"}, {"measurement": "Concentration in mouse plasma, individual mice 1, 2, 3", "setting": "[1]; mouse plasma, IP 25mg/kg, 3h, single animals, 25 mg/kg", "value": "36.02 ng/mL and 14.64 ng/mL and 33.18 ng/mL"}, {"measurement": "Concentration in mouse plasma, individual mice 1, 2, 3", "setting": "[1]; mouse plasma, IP 25mg/kg, 6h, single animals, limit of quantification 1 ng/mL, 25 mg/kg", "value": "<1 ng/mL and 1.04 ng/mL"}, {"measurement": "Concentration in mouse plasma, individual mice 1, 2, 3", "setting": "[1]; mouse plasma, IP 25mg/kg, 24h, single animals, limit of quantification 1 ng/mL", "value": "<1", "unit": "ng/mL"}, {"measurement": "covalent bond to Cys115 of DCN1 in the cocrystal structure", "setting": "DCN1", "value": "confirmed the covalent nature of these complexes"}, {"measurement": "covalent complex formation with DCN3", "setting": "DCN3 protein", "value": "fail to form any detectable complex"}, {"measurement": "concentration achieving profound inhibition of the neddylation of cullin 3", "setting": "neddylation of cullin 3", "value": "1 to 3", "unit": "nM"}, {"measurement": "concentration as low as which the level of neddylated cullin 3 is significantly reduced", "setting": "neddylation of cullin 3", "value": "≤ 0.3", "unit": "nM"}]}
